From US6890954B1, “Uses of 2-bromopalmitate in the treatment of autoimmune disease” (priority 1999, dated 2005)

Experiments:
Format in all cases: cell-based
[1] = system: Jurkat cells; test: Toxicity control: LAT and actin levels by immunoblot in Jurkat cells; settings: toxicity check, data not shown
Description: To verify that the observed inhibition of T cell receptor-mediated tyrosine phosphorylation was not a result of toxicity effects of 2-bromopalmitate, aliquots of each sample were analyzed by immunoblotting with anti-LAT and anti-actin antibodies. The levels of LAT and actin were not affected by 2-bromopalmitate (data not shown). Thus 2-bromopalmitate was able to inhibit signaling through the T cell receptor, as assayed by its ability to inhibit tyrosine phosphorylation of key substrate proteins.

[2] = system: T cell receptor signaling; test: TCR-mediated tyrosine phosphorylation in Jurkat T cells (anti-phosphotyrosine immunoblot)
Description: (§1) Jurkat T cells (2×10^6−1×10^7) were centrifuged at 1,000×g for 5 minutes, rinsed with RPMI, resuspended in RPMI supplemented with 2% dialyzed FBS, 0.5% defatted BSA, and incubated with or without 100 μM 2-bromopalmitate at 8×10^5 cells/ml for 3 hours. The cells were centrifuged, washed with RPMI and resuspended in RPMI at 1×10^7−1×10^8 cells/ml. The cells were then activated with anti-CD3 OKT3 mAb (0.3 mg/ml) for 3 min at 37° C., quickly spun down, washed once with cold RPMI and once with cold STE, and lysed in RIPA Samples were solubilized in 1× sample buffer containing 5% β-mercaptoethanol and subjected to SDS-PAGE, followed by immunoblotting with anti-phosphotyrosine antibody (PY99). For analysis of specific proteins, RIPA lysates were immunoprecipitated with the specific antibodies O/N, and immunoblotted for phosphotyrosine. Alternatively, proteins were immunoprecipitated with agarose-conjugated anti phosphotyrosine antibody and blotted for the specific proteins.
Jurkat cells were incubated with 2-bromopalmitate and activated with OKT3 anti-CD3 antibody. Cell lysates were analyzed by immunoblotting with anti phosphotyrosine antibodies. In control cells, stimulation with OKT3 antibodies induced tyrosine phosphorylation of multiple proteins (Fig 5A). […] The most dramatic effect was on a 36 kDa protein, which represents LAT (see below).

[3] = system: Vav; test: CD3-mediated tyrosine phosphorylation of Vav in Jurkat cells; settings: 100 μM 3 hours, OKT3
Description: as §1
(§2) In order to identify the individual proteins whose tyrosine phosphorylation is affected by 2-bromopalmitate, lysates were immunoprecipitated with a panel of specific antibodies, and immunoblotted for phosphotyrosine. Alternatively, lysates were immunoprecipitated with an antiphosphotyrosine antibody, and blotted with antibodies to specific proteins.

[4] = system: MAP kinase; test: Activation of MAP kinase in Jurkat cells (pERK immunoblot); settings: OKT3 activated, pERK1 blot
Description: Jurkat cells were treated with 2-bromopalmitate and activated as described above. Lysates were analyzed for the presence of active MAP kinase by immunoblotting with a pERK antibody, and for total MAP kinase by immunoblotting with an anti MAPK antibody.
One of the proximal events following T cell receptor engagement is activation of the MAP Kinase pathway. The ability of 2-bromopalmitate to inhibit activation of MAP kinase was examined in Jurkat cells. Cells were cultured with or without 2bromo-palmitate and activated as described above. Cell lysates were subjected to SDS-PAGE and immunoblotted with anti-active MAPK kinase (pERK1). As depicted in FIG. 7, 2-bromopalmitate inhibited the activation of MAPK kinase by 70%. The levels of total MAPK kinase remained unchanged (FIG. 7).

[5] = system: PLC-γl; test: CD3-mediated tyrosine phosphorylation of PLC-γl in Jurkat cells; settings: 100 μM 3 hours, OKT3
Description: as §1, §2

[6] = system: Fyn; test: DRM (raft) localization in activated Jurkat cells, sucrose gradient: Fyn; settings: 100 μM 3 hours, OKT3 activated, control 88%
Description: Isolation of Triton X-100 resistant and soluble fractions was carried out as described previously (12). Isolation of detergent resistant microdomains by sucrose gradients were carried out as follows (19): Jurkat cells (5×10^7) were treated with 2-bromopalmitate, activated with OKT3 mAb as described above, and lysed in 1 ml lysis buffer (25 mM MES pH 6.5, 150 mM NaCl, 0.5% Triton X-100, 1 mM Na3VO4) supplemented with protease inhibitors for 30 minutes at 0° C. After homogenizing 10 times with a loose fit Dounce homogenizer, lysates were mixed with 1 ml 85% sucrose in MBS (25 mM MES pH 6.5, 150 mM NaCl), and overlayered with 6 ml 30% sucrose in MBS, then with 4 ml 5% sucrose in MBS. Following centrifugation for 16 hours at 145,000 g in an SW40 rotor, 1 ml fractions were collected and analyzed by PAGE and immunoblotting with anti-Fyn, anti-LAT, or anti-Lck antibodies.
The ability of 2-bromopalmitate to inhibit localization of palmitoylated proteins to detergent resistant microdomains in activated Jurkat cells was examined next. Cells were either left untreated or treated with 100 μM 2-bromopalmitate for 3 hours, washed, resuspended in serum-free media, and the TCR was activated with OKT3 mAb. Activated cells were extracted with Triton X-100 containing buffer. […] Each fraction was analyzed by immunoblotting with specific antibodies. […]

CCCCCCCCCCCCCCC(Br)C(=O)O (centres unmarked) [2-bromopalmitate]
levels of LAT and actin [1]: not affected
OKT3-induced tyrosine phosphorylation of several proteins ([2]; 100 μM 3 hours, OKT3 3 min): significantly inhibited
reduction of tyrosine phosphorylation on the signaling molecules examined, basal activation taken into account ([2]; FIG. 5B): 70-100%
tyrosine phosphorylation in the presence of 2-bromopalmitate alone (no stimulation), some proteins ([2]; unactivated): Low to moderate increases
Vav phosphorylation inhibited [3]: 40%
activation of MAPK kinase inhibited [4]: 70%
PLC-γl phosphorylation inhibited [5]: 70%
Fyn found in the rafts [6]: 59%
